Laboratory results from the NIST ThermoML archive (doi:10.1016/j.tca.2010.05.014).

Assay: cn = amount concentration of the nth substance listed, in mol/dm3
Details: 101 kPa, Liquid; for viscosity: Capillary tube (Ostwald / Ubbelohde) method; for mass density: Vibrating tube method

O=C(O)CC(O)(CC(=O)O)C(=O)O [citric acid] + O
Details | mass density, c1 = 0.03 [kg/m3] | mass density, c1 = 0.05 [kg/m3] | mass density, c1 = 0.07 [kg/m3] | mass density, c1 = 0.1 [kg/m3] | viscosity, c1 = 0.03 [mPa·s] | viscosity, c1 = 0.05 [mPa·s] | viscosity, c1 = 0.07 [mPa·s] | viscosity, c1 = 0.1 [mPa·s]
298.15 K | 999.5 | 1000.9 | 1002.6 | 1004.8 | 0.8766 | 0.8921 | 0.9048 | 0.9254
308.15 K | 996.3 | 997.7 | 999.3 | 1001.8 | 0.7136 | 0.7253 | 0.7595 | 0.7855
318.15 K | 992.5 | 993.8 | 995.4 | 997.9 | 0.6253 | 0.6261 | 0.6527 | 0.6766
